Assay results as given in PMC5206724, “Insensitivity to pain induced by a potent selective closed-state Nav1.7 inhibitor” (Scientific Reports, 2017).
Like-named read-outs stand apart in the source and are kept apart here.

Tests used:
hNav1.1 = hNav1.1 (Homo sapiens, UniProt P35498); test: cell-based; conditions: QPatch; read-out: Fitted Emax hNav1.1
[1] = for abnormal proprioception of hind paws / abnormal stepping / flaccidity / hindlimb weakness: baseline 0/7
[2] = in words
Source text: Rats ~250–300 g were placed under Isoflurane anesthesia (4% for induction, 2% for maintenance). A single hip and proximal hind-leg area were shaved and the injection area prepped with alternating applications of chlorhexidine 2% soln. and isopropyl alcohol 70%. A pelvic notch just distal to the greater trochanter was located with palpation and a starter hole was made through the dermis using a 20G hypodermic needle. A 22G nerve stimulating injection needle (ProBloc II, cat#HN3S-40, Halyard Health) connected to a peripheral nerve stimulation device (EZstim II model ES400, Life-Tech, Inc.) was placed into the starter hole. The nerve stimulator was set to 0.7 mA and the injection needle was gently advanced in a line parallel to the femur until localized dorsal or plantar flexion of the foot was observed. Generalized muscle twitching involving primary twitching on the quadriceps muscle was considered a negative response and the needle was carefully re-positioned until the appropriate localized foot flicking was observed. […] The device was increased back to 0.2 mA and if twitching was still observed, the 100 μL injection was given.

hNav1.5 = hNav1.5 (Homo sapiens, UniProt Q14524); test: cell-based; conditions: QPatch; read-out: Fitted Emax hNav1.5
hNav1.4 = hNav1.4 (Homo sapiens, UniProt P35499); test: cell-based; conditions: QPatch; read-out: Fitted Emax hNav1.4
hNav1.6 = hNav1.6 (Homo sapiens, UniProt Q9UQD0); test: cell-based; conditions: QPatch
Sequence of hNav1.6 (Q9UQD0 whole entry): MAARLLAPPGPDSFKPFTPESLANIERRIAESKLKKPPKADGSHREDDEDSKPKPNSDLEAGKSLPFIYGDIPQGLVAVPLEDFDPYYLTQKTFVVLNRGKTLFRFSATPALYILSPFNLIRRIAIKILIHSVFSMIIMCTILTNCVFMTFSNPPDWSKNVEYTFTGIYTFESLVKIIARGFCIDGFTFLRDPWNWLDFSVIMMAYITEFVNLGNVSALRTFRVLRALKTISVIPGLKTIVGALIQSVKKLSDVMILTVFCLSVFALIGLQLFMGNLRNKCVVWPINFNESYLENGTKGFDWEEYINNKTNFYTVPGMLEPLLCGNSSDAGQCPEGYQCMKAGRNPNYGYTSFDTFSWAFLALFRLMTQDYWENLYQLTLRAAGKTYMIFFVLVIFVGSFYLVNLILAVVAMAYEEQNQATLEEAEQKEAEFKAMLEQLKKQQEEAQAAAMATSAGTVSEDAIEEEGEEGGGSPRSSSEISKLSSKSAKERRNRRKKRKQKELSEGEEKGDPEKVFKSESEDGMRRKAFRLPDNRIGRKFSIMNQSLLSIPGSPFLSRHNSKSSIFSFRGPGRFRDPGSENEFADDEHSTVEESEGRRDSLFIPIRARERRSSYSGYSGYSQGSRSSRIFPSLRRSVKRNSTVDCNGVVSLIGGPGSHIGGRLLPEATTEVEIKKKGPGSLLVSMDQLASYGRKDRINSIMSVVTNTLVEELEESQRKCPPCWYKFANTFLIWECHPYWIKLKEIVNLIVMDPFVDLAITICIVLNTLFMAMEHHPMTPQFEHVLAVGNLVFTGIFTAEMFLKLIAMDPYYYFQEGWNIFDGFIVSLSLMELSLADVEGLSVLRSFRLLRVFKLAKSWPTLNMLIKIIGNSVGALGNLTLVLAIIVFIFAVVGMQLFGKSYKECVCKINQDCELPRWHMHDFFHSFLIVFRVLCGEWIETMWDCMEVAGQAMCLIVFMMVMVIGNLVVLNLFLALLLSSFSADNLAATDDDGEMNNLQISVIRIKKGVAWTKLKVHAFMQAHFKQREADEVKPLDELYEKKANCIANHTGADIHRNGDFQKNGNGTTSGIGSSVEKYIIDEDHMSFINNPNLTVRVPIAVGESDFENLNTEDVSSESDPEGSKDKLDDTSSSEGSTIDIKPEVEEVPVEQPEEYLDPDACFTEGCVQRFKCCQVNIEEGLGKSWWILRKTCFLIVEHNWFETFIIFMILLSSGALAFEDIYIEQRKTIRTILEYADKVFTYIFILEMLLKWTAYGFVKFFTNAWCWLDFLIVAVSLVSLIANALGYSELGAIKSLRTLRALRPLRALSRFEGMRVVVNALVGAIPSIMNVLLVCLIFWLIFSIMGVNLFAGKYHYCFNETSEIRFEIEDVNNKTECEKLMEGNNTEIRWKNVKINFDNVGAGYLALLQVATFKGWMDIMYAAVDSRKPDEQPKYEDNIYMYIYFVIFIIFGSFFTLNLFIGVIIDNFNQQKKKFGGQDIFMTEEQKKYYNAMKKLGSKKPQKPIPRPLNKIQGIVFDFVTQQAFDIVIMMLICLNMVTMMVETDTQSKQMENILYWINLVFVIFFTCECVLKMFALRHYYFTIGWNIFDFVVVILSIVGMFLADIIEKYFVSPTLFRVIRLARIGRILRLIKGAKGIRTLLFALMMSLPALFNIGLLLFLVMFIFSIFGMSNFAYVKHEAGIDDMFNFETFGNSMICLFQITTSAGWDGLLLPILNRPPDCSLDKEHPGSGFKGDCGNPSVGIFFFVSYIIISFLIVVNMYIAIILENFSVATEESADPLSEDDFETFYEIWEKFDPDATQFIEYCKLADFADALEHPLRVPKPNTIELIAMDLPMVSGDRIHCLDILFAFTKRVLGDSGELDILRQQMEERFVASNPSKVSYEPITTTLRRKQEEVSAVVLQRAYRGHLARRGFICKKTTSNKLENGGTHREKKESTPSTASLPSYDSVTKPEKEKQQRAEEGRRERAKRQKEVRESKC

hNav1.3 = hNav1.3 (Homo sapiens, UniProt Q9NY46); test: cell-based; conditions: QPatch; read-out: Fitted Emax hNav1.3
Sequence of hNav1.3 (Q9NY46 whole entry): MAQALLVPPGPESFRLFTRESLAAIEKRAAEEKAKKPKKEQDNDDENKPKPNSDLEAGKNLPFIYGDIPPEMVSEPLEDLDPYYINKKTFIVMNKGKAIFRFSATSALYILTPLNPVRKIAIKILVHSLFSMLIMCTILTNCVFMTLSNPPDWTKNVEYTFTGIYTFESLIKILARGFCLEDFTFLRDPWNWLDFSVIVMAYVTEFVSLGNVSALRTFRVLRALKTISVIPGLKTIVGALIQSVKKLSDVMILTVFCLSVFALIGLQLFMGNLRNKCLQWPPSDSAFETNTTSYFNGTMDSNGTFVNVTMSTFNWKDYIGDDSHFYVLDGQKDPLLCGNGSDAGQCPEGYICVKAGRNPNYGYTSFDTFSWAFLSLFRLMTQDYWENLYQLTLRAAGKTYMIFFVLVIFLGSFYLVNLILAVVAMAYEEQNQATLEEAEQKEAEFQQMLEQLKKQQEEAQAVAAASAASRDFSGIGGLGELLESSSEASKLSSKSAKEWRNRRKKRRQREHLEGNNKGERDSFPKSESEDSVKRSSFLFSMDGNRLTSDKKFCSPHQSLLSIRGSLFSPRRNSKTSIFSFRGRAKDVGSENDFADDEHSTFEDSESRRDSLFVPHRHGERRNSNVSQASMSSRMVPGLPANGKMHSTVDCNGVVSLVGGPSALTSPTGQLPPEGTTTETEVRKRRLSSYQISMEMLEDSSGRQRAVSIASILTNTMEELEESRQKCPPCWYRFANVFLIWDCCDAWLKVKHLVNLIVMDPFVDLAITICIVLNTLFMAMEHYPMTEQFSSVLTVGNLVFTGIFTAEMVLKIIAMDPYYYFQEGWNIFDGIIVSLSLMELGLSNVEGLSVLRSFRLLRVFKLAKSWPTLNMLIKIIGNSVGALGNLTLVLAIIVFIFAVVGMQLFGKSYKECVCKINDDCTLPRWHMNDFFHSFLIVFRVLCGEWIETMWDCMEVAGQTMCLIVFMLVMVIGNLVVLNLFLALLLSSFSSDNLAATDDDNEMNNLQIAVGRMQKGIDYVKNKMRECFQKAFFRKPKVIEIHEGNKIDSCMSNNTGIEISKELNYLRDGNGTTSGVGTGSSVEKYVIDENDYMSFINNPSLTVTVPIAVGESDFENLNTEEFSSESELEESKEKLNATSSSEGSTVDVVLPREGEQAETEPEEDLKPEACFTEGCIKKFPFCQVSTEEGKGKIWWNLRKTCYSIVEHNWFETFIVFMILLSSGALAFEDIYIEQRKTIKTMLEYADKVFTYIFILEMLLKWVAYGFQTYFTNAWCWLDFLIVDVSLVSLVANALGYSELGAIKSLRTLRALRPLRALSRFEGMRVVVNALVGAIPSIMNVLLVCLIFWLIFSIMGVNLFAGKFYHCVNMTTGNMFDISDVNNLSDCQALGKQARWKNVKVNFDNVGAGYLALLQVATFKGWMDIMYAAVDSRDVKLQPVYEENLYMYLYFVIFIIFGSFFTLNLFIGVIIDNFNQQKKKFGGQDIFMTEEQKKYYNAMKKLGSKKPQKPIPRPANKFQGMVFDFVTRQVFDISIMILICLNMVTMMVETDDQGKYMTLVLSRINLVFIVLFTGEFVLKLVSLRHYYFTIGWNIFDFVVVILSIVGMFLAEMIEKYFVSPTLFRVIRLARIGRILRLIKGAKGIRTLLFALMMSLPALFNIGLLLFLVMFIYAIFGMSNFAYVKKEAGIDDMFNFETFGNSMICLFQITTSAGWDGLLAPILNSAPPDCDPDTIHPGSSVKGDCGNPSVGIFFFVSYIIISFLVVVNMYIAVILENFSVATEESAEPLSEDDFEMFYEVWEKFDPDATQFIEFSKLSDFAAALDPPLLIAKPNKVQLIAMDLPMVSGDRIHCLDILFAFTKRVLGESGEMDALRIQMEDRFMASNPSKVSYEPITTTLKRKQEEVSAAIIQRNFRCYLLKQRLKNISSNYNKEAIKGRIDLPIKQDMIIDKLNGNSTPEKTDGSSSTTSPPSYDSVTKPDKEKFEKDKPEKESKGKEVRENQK

hNav1.2 = hNav1.2 (Homo sapiens, UniProt Q99250); test: cell-based; conditions: QPatch; read-out: Fitted Emax hNav1.2
[3] = 2 μg/10 μl IT, 30 min post dosing
[4] = 2 μg/10 μl IT, 90 min post dosing
[5] = 2 μg/10 μl IT, formalin study, in words

With `CSCC[C@@H]1NC(=O)CNC(=O)[C@H](CCC(=O)O)NC(=O)[C@@H]2CSSC[C@H](NC(=O)[C@@H](N)Cc3ccc(O)cc3)C(=O)N[C@@H](CCC(N)=O)C(=O)N[C@@H](CCCCN)C(=O)N[C@@H](Cc3c[nH]c4ccccc34)C(=O)N[C@@H](CCSC)C(=O)N[C@@H](Cc3c[nH]c4ccccc34)C(=O)N[C@@H]([C@@H](C)O)C(=O)N[C@H]3CSSC[C@H](NC(=O)[C@H](C(C)C)NC1=O)C(=O)N[C@@H](CCCNC(=N)N)C(=O)N[C@@H](CC(C)C)C(=O)N[C@@H](Cc1c[nH]c4ccccc14)C(=O)N[C@H](C(=O)N[C@@H](CCCCN)C(=O)N[C@@H](CCCCN)C(=O)N[C@@H](CCCCN)C(=O)N[C@@H](CC(C)C)C(=O)N[C@@H](Cc1c[nH]c4ccccc14)C(=O)O)CSSC[C@H](NC(=O)[C@H](CCCCN)NC(=O)[C@H](CCCNC(=N)N)NC(=O)[C@H](CCC(=O)O)NC(=O)[C@H](CO)NC(=O)[C@H](CC(=O)O)NC3=O)C(=O)N2` [ProTX-II, reference compound] the Emax (hNav1.1) was 100%, the “abnormal proprioception of hind paws” value [1, 3] was 2/7 and the abnormal stepping [1, 3] was 2/7. The flaccidity [1, 3] was 1/7, the hindlimb weakness [1, 3] was 2/7 and the “abnormal proprioception of hind paws” value [1, 4] was 0/7. The abnormal stepping [1, 4] was 0/7, the flaccidity [1, 4] was 0/7 and the hindlimb weakness [1, 4] was 2/7. For the same compound, the abrasions and scabs [1, 5] was “Abrasions and scabs to the face, neck, and shoulders were observed in some”, the “effect on motor function” value [1, 5] was “without any severe effect on motor function” and the “motor effects just above efficacious dose” value ([1]; rat, IT, in words) was “exerts profound motor effects at doses just above the efficacious analgesic dose”. The “motor effects above maximum tolerated IT dose” value ([1]; rat, higher than 2 μg/10 μl, in words) was “dose-related motor abnormalities that progressed from transient rear weakness, to paralysis of both the hind and forelimbs, slowing of respiration and death”, the “maximum tolerated dose (MTD), IT” value ([1]; rat, intrathecal) was 2 μg/10 μl and the “lesions to the face and shoulders” value ([1]; rats, in words) was “often noticed”. For the same compound, the ambulation ([2]; 250 μg/100 μl peri-sciatic) was “No effect upon ambulation”, the “tolerability, peri-sciatic” value ([2]; 250 μg/100 μl) was “well tolerated at the highest dose tested” and the Emax (hNav1.5) was 100%. The Emax (hNav1.4) was 100%, the IC50 (hNav1.6; CHO cells, holding −60 mV, 0.1% BSA, ~22 °C, ± SEM, read-out: pIC50 hNav1.6 (converted)) was 31.6 nM and the Emax (hNav1.6; read-out: Fitted Emax hNav1.6) was 100%. The Emax (hNav1.3) was 100% and the Emax (hNav1.2) was 100%.
